pEC50: −log10 of the molar value.
What was measured:
CCRF-CEM [1] = experiment: In vitro antiviral activity against HIV-2 in CEM cells; format: functional, cell-based; conditions: Homo sapiens
MT4 [2] = experiment: In vitro antiviral activity against HIV-2 in MT-4 cells; format: functional, cell-based; conditions: Homo sapiens
CCRF-CEM [3] = experiment: In vitro antiviral activity against HIV-1 in CEM cells; format: functional, cell-based; conditions: Homo sapiens
[4] = In vitro cytotoxic concentration against CEM cells; format: cell-based, CCRF-CEM; conditions: human
MT4 [5] = experiment: In vitro antiviral activity against HIV-1 in MT-4 cells; format: functional, cell-based; conditions: Homo sapiens
[6] = In vitro cytotoxic concentration against MT-4 cells; format: cell-based, MT4; conditions: human

Row | SMILES | pEC50 (CCRF-CEM [1]) | pEC50 (MT4 [2]) | pEC50 (CCRF-CEM [3]) | CC50 [4] | pEC50 (MT4 [5]) | CC50 [6]
1 | COC(=O)[C@@H](Cc1ccccc1)NP(=O)(CO[C@H](C)Cn1cnc2c(N)ncnc21)Oc1ccc(Cl)cc1 (stereo partly specified) | 7.22 | 7.15 | 7.15 | 26 µM | 7.40 | 64 µM
2 | COC(=O)CNP(=O)(CO[C@H](C)Cn1cnc2c(N)ncnc21)Oc1ccccc1 (stereo partly specified) | 6.51 | 6.82 | 6.64 | 88.5 µM | 6.24 | 102 µM
3 | COC(=O)[C@@H](C)NP(=O)(CO[C@H](C)Cn1cnc2c(N)ncnc21)Oc1ccccc1 (stereo partly specified) | 7.05 | 7.59 | 7.28 | 27 µM | 7.54 | 71.4 µM
4 | COC(=O)[C@H](C)NP(=O)(CO[C@H](C)Cn1cnc2c(N)ncnc21)Oc1ccccc1 (stereo partly specified) | 6.42 | 6.19 | 6.30 | 125 µM | 6.00 | 213 µM
5 | COC(=O)[C@@H](C)NP(=O)(CO[C@H](C)Cn1cnc2c(N)ncnc21)Oc1ccc(Cl)cc1 (stereo partly specified) | 6.92 | 6.59 | 6.70 | 106 µM | 6.82 | 57 µM
6 | COC(=O)CNP(=O)(COCCn1cnc2c(N)ncnc21)Oc1ccccc1 (stereo unspecified) | 5.35 | 5.32 | 5.25 | 80 µM | 5.44 | 120 µM
7 | COC(=O)[C@H](C)NP(=O)(COCCn1cnc2c(N)ncnc21)Oc1ccccc1 (stereo partly specified) | 5.22 | 5.14 | 5.30 | 67 µM | 4.82 | 120 µM
8 | COC(=O)[C@@H](C)NP(=O)(COCCn1cnc2c(N)ncnc21)Oc1ccccc1 (stereo partly specified) | 6.70 | 6.82 | 6.92 | 3.7 µM | 6.64 | 5.1 µM
9 | C[C@H](Cn1cnc2c(N)ncnc21)OCP(=O)(Oc1ccccc1)Oc1ccccc1 | 5.40 | 5.31 | 5.40 | > 250 µM | 5.21 | > 250 µM
10 | Nc1ncnc2c1ncn2CCOCP(=O)(O)O [ADEFOVIR] | 5.00 | 5.12 | 5.15 | 69 µM | 5.15 | 144 µM
11 | C[C@H](Cn1cnc2c(N)ncnc21)OCP(=O)(O)O [TENOFOVIR ANHYDROUS] | 5.44 | 5.85 | 5.44 | > 250 µM | 5.64 | 197 µM

— ChEMBL document CHEMBL1134026, “Synthesis and evaluation of novel amidate prodrugs of PMEA and PMPA” (Bioorg Med Chem Lett, 2001)
